Patent publication US20100099109A1, “Methods for Analyzing Drug Response” (NODALITY, INC., A DELAWARE CORPORATION, priority 2008, published 2010)
“Also recorded” adds a separate entry of the source. Like-named read-outs stand apart in the source and are kept apart here.

What was measured:
[1] = cited from earlier work
U937 cell line = test: Mylotarg/Nocodazole exposure, multiparameter flow cytometry of DNA damage, cell cycle and apoptosis; format: cell-based; settings: 24 hours exposure
Description: ATM activity also phosphorylates Chk2 and p53. […] Cyclin B1 is produced during the G2 phase of the cell cycle and its accumulation drives the cell cycle into M phase. Therefore, low levels of Cyclin B1 mark G1 and S phases, high levels mark G2 phase, and higher levels mark M phase. Histone H3 (S28) becomes phosphorylated in M phase, making p-Histone H3(S28) a useful marker of cells in M phase and not G2. It is also possible to monitor the G2/M phases of the cell cycle by measuring the phosphorylation status of Cdk1, previously known as Cdc2, a cyclin-dependent protein kinase that controls the cell cycle entry from G2 to M phase. An inhibitory phosphorylation on Cdk1 is removed by CDC25C in the M phase transition, allowing G2 cells to be distinguished from M cells based on levels of p-Cdk1. […] Treating cells with the microtubule polymerization inhibitor Nocodazole induces cells cycle arrest in M phase without DNA damage.
(§1) The experimental measurements included forward and side scatter, the use of viability dyes (amine aqua and propidium iodide (PI)), and determination of cell cycle and apoptosis by measuring DNA content with DRAQ5. Additionally, cell cycle progression was measured by determining levels of cyclin B1, phosphorylated histone H3, and phosphorylated CDK-1. All these determinations were made in freshly thawed as well as in cultured cycling cells.
(§2) After incubation with fluorochrome-conjugated antibody panels that recognized: p-H2AX, p-Chk2, p-ATM, p-53, cleaved PARP and cleaved caspase 3, cells were processed for cytometry as described above.

[2] = system: Mylotarg refractory cell lines; test: Mylotarg exposure and modulated signaling in resistant cell lines; format: cell-based; settings: exposed for 5-15 minutes
Experimental: as §1, §2
(§3) Experiments were conducted in which cell lines were exposed for 5-15 minutes to growth factors and cytokines, after which cells were fixed, permeabilized and incubated with panels of fluorochrome-conjugated antibody panels that recognized intracellular signaling molecules. After processing, cells were acquired on the cytometer.

[3] = target: T1, MDR1 drug pump activity in KG-1 cells (Homo sapiens, UniProt P08183); test: Functional drug transporter assay (DIOC2(3) efflux); format: cell-based; settings: Mylotarg resistant KG-1 cells; co-incubation with inhibitor
T1 construct: KG-1 cells are included as a control since they express functional MDR-1; endogenous in cells; host or cells: KG-1 cells
Experimental: (§4) Determination of transporter functional activity: Transporter activity is measured in subpopulations gated for CD45, CD11b, CD34, CD38, and other surface markers including drug transporters themselves. Fluorescent dyes including calcein-acetoxymethyl ester in the presence or absence of inhibitors cyclosporin or PSC-833 for MDR1, reserpine for BCRP-1 and MK571 or probenecid for MRP-1) are used to evaluate the contribution of each transporter to drug efflux
(§5) Cells are thawed, counted and resuspended at 0.222×10^6/ml in RPMI 10% FBS. This example uses 100,000 cells in 450 microliters aliquoted into 6 columns of a 96 well Deep-Well “Cell Plate”. However, the experimental setup is not limited to using 100,000 cells/condition. KG-1 cells are included as a control since they express functional MDR-1.
(§6) 10× Inhibitor or 10× Mock Solutions are prepared by the following protocols: • 10×PSC-833. Stock Conc=2 mM=2000 uM. 10× Conc=20 uM (1:100). • Combine 25 uL stock with 2475 uL DPBS/0.5% BSA • Note Final Conc DMSO=0.1% • Could likely use a range of PSC-833 Concentrations not limited to 2 uM. • This experiment uses Final Concentration of 2 uM • 10×DMSO buffer (mock) • Combine 25 uL DMSO with 2475 uL DPBS/0.5% BSA […]

[4] = system: MDR1 drug pump activity in U937 cells; test: as above; format: cell-based; settings: Mylotarg sensitive cell line U937
Experimental: as §4, §5, §6

[5] = system: Mylotarg sensitive cell lines; test: Mylotarg exposure and modulated signaling in sensitive cell lines; format: cell-based; settings: exposed for 5-15 minutes
Experimental: as §1, §2, §3

T1 sequence (P08183 whole entry): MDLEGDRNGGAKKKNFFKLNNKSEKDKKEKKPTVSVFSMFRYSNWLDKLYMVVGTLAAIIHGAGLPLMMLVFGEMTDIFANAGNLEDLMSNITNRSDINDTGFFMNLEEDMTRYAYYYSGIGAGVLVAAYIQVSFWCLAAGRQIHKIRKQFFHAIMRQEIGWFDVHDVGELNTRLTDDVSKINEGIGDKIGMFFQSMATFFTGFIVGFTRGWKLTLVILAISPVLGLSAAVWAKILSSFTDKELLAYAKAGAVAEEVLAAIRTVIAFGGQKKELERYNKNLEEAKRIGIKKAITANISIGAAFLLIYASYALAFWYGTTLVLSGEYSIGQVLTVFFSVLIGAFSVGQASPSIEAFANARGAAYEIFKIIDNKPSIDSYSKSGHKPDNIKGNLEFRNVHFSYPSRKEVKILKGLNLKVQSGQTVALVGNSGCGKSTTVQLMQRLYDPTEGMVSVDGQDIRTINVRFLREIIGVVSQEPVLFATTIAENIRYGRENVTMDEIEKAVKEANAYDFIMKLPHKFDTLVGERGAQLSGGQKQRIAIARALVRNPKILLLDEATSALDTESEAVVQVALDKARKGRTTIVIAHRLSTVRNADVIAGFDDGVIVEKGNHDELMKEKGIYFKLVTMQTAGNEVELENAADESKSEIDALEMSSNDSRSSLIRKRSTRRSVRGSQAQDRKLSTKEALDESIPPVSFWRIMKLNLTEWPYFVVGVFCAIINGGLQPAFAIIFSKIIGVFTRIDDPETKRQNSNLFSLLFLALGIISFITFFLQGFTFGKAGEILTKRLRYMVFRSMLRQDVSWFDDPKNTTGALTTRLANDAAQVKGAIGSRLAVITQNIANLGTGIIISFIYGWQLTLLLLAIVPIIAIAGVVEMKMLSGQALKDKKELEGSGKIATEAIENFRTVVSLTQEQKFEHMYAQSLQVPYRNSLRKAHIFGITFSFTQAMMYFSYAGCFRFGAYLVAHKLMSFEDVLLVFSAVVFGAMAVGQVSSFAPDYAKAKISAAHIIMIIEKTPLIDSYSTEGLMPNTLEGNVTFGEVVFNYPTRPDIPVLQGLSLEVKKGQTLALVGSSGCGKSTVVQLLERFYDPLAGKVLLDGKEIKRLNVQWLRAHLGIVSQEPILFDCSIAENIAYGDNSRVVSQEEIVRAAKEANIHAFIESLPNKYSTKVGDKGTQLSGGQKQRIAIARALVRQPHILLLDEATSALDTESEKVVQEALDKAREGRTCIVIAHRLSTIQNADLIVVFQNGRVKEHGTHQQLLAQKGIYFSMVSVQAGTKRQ

Nc1ccn([C@@H]2O[C@H](CO)[C@@H](O)[C@@H]2O)c(=O)n1 [Cytarabine]
peak plasma concentration ([1]; high dose, 3 g/m2): 2 µM | peak plasma concentration ([1]; standard dose, 100 mg/m2): approximately 40 nM

COc1cccc2c1C(=O)c1c(O)c3c(c(O)c1C2=O)C[C@@](O)(C(C)=O)C[C@@H]3O[C@H]1C[C@H](N)[C@H](O)[C@H](C)O1 [Daunorubicin]
peak plasma concentration ([1]; 25 mg/m2): 50 ng/mL | peak plasma concentration ([1]; 50 mg/m2): 200 ng/mL

COC(=O)Nc1nc2cc(C(=O)c3cccs3)ccc2[nH]1 [Nocodazole]
cell cycle arrest (Cyclin B1, p-Histone H3(S28), p-Cdk1) (U937 cell line): arrest in M rather than G2

CCCCCCCCCCCCCC(=O)O[C@@H]1[C@@H](C)[C@@]2(O)[C@@H](C=C(CO)C[C@]3(O)C(=O)C(C)=C[C@@H]23)[C@@H]2C(C)(C)[C@]12OC(C)=O [PMA, phorbol myristic acetate]
PMA-mediated p-S6 [2]: increase in p-S6

C/C=C/C[C@@H](C)C(=O)[C@H]1C(=O)N[C@@H](C(C)C)C(=O)N(C)CC(=O)N(C)[C@@H](CC(C)C)C(=O)N[C@@H](C(C)C)C(=O)N(C)[C@@H](CC(C)C)C(=O)N[C@@H](C)C(=O)N[C@H](C)C(=O)N(C)[C@@H](CC(C)C)C(=O)N(C)[C@@H](CC(C)C)C(=O)N(C)[C@@H](C(C)C)C(=O)N1C [PSC-833]
effect on MDR1 drug pump activity / intracellular levels of DIOC2(3) [3]: blocked; also recorded: significant increase in intracellular reporter | effect on intracellular levels of DIOC2(3) [4]: no effect

IL-6: cytokine modulator of JAK/STAT pathways
IL-6 mediated p-Stat1 [5]: increased

SCF: growth factor/cytokine modulator of PI3K, Ras/Raf pathways
SCF-mediated p-Akt, p-Erk, and p-S6 [2]: increase
